The compounds below were run against T1, glutathione S-transferase (GST)-linked full-length human Syk protein (Homo sapiens, UniProt P43405) (assay: Syk enzyme assay). Conditions: 0.83 nM Syk, time-resolved fluorescence; read-out: IC50 of Syk-inhibitory activity.
T1 construct: glutathione S-transferase (GST)-linked full-length human Syk protein; purchased Carna Biosciences; host or cells: Baculovirus expression system
Type: biochemical
Method in brief: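 Phosphotyrosine on a biotin-peptide substrate (0.5 μM) was read by time-resolved fluorescence at 615 and 665 nm with Eu-anti-pTyr antibody and APC-streptavidin after 1 h EDTA stop.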

Question: `COc1cc(Nc2nc(N[C@H](C3CCC3)[C@H](C)N)c(F)cc2C(N)=O)ccn1` [Example 2-5, 6-(((1R,2S)-2-amino-1-cyclobutylpropyl)amino)-5-fluoro-2-((2-methoxypyridin-4-yl)amino)nicotinamide] was tested. Which IC50 did it give?
Answer: < 10 nM

Question: Which IC50 does the source give for `COc1cc(Nc2nc(N[C@H](C3CCC3)[C@H](C)N)c(F)cc2C(N)=O)cc(OC)n1` [Example 2-6, 6-(((1R,2S)-2-amino-1-cyclobutylpropyl)amino)-2-((2,6-dimethoxypyridin-4-yl)amino)-5-fluoronicotinamide] here?
Answer: < 10 nM

Question: Which IC50 does the source give for `COCCOc1cc(Nc2nc(N[C@H](C3CCC3)[C@H](C)N)c(F)cc2C(N)=O)ccn1` [Example 2-7, 6-(((1R,2S)-2-amino-1-cyclobutylpropyl)amino)-5-fluoro-2-((2-(2-methoxyethoxy)pyridin-4-yl)amino)nicotinamide] here?
Answer: < 10 nM

Question: For `C[C@H](N)[C@H](Nc1nc(Nc2ccc3ncccc3c2)c(C(N)=O)cc1F)C1CCC1` [Example 2-8, 6-(((1R,2S)-2-amino-1-cyclobutylpropyl)amino)-5-fluoro-2-(quinolin-6-ylamino)nicotinamide], which IC50 is on record?
Answer: < 10 nM

Question: `Cc1cnn(-c2cncc(Nc3nc(N[C@@H](CN)CC(C)C)c(F)cc3C(N)=O)c2)c1` [Example 2-524, (R)-6-((1-amino-4-methylpentan-2-yl)amino)-5-fluoro-2-((5-(4-methyl-1H-pyrazol-1-yl)pyridin-3-yl)amino)nicotinamide] was tested. Which IC50 did it give?
Answer: < 10 nM

Question: Which IC50 does the source give for `Cc1cnn(-c2cncc(Nc3nc(N[C@H](CC(C)C)[C@H](C)N)c(F)cc3C(N)=O)c2)c1` [Example 2-525, 6-(((2S,3R)-2-amino-5-methylhexan-3-yl)amino)-5-fluoro-2-((5-(4-methyl-1H-pyrazol-1-yl)pyridin-3-yl)amino)nicotinamide] here?
Answer: < 10 nM

Question: With `Cc1cnn(-c2cncc(Nc3nc(N[C@@H]4CCOC[C@@H]4N)c(F)cc3C(N)=O)c2)c1` [Example 2-526, 6-(((3R,4R)-3-aminotetrahydro-2H-pyran-4-yl)amino)-5-fluoro-2-((5-(4-methyl-1H-pyrazol-1-yl)pyridin-3-yl)amino)nicotinamide] as the compound, how does the IC50 read?
Answer: < 10 nM

Question: With `Cc1cnn(-c2cncc(Nc3nc(N[C@H](C4CC4)[C@H](C)N)c(F)cc3C(N)=O)c2)n1` [Example 2-532, 6-(((1R,2S)-2-amino-1-cyclopropylpropyl)amino)-5-fluoro-2-((5-(4-methyl-2H-1,2,3-triazol-2-yl)pyridin-3-yl)amino)nicotinamide] as the compound, how does the IC50 read?
Answer: < 10 nM

Question: For `Cc1nn(-c2cncc(Nc3nc(N[C@H](C4CC4)[C@H](C)N)c(F)cc3C(N)=O)c2)nc1C` [Example 2-534, 6-(((1R,2S)-2-amino-1-cyclopropylpropyl)amino)-2-((5-(4,5-dimethyl-2H-1,2,3-triazol-2-yl)pyridin-3-yl)amino)-5-fluoronicotinamide], which IC50 is on record?
Answer: 50 to 100 nM

Question: Which IC50 does the source give for `COCCNc1nn(CCOC)c2ccc(Nc3nc(N[C@@H]4CCCC[C@@H]4N)c(F)cc3C(N)=O)cc12` [Example 2-535, 6-(((1R,2S)-2-aminocyclohexyl)amino)-5-fluoro-2-((1-(2-methoxyethyl)-3-((2-methoxyethyl)amino)-1H-indazol-5-yl)amino)nicotinamide] here?
Answer: 10 to 50 nM

Question: How did the IC50 turn out when `CC[C@@H](Nc1nc(Nc2ccc3c(c2)c(NCCOC)nn3CCOC)c(C(N)=O)cc1F)[C@H](C)N` [Example 2-536, 6-(((2S,3R)-2-aminopentan-3-yl)amino)-5-fluoro-2-((1-(2-methoxyethyl)-3-((2-methoxyethyl)amino)-1H-indazol-5-yl)amino)nicotinamide] was run?
Answer: 10 to 50 nM

Question: For `COCCNc1nn(CCOC)c2ccc(Nc3nc(N[C@H](C4CC4)[C@H](C)N)c(F)cc3C(N)=O)cc12` [Example 2-537, 6-(((1R,2S)-2-amino-1-cyclopropylpropyl)amino)-5-fluoro-2-((1-(2-methoxyethyl)-3-((2-methoxyethyl)amino)-1H-indazol-5-yl)amino)nicotinamide], which IC50 is on record?
Answer: 10 to 50 nM

Question: With `COCCn1nc(OC)c2cc(Nc3nc(N[C@H](C4CCC4)[C@H](C)N)c(F)cc3C(N)=O)ccc21` [Example 2-540] as the compound, how does the IC50 read?
Answer: < 10 nM

Question: How did the IC50 turn out when `CC(C)C[C@H](CN)Nc1nc(Nc2ccc3c(c2)c(OC(F)F)nn3C)c(C(N)=O)cc1F` [Example 2-541, (R)-6-((1-amino-4-methylpentan-2-yl)amino)-2-((3-(difluoromethoxy)-1-methyl-1H-indazol-5-yl)amino)-5-fluoronicotinamide] was run?
Answer: < 10 nM

Question: How did the IC50 turn out when `COCCn1nc(OC(F)F)c2cc(Nc3nc(N[C@@H](CN)CC(C)C)c(F)cc3C(N)=O)ccc21` [Example 2-542, (R)-6-((1-amino-4-methylpentan-2-yl)amino)-2-((3-(difluoromethoxy)-1-(2-methoxyethyl)-1H-indazol-5-yl)amino)-5-fluoronicotinamide] was run?
Answer: < 10 nM

Question: With `COCCn1nc(OC(F)F)c2cc(Nc3nc(N[C@H](C4CCC4)[C@H](C)N)c(F)cc3C(N)=O)ccc21` [Example 2-543, 6-(((1R,2S)-2-amino-1-cyclobutylpropyl)amino)-2-((3-(difluoromethoxy)-1-(2-methoxyethyl)-1H-indazol-5-yl)amino)-5-fluoronicotinamide] as the compound, how does the IC50 read?
Answer: < 10 nM

Question: With `CC[C@H](N)[C@@H](C)Nc1nc(Nc2ccc3c(c2)c(OC(F)F)nn3CCOC)c(C(N)=O)cc1F` [Example 2-544, 6-(((2R,3S)-3-aminopentan-2-yl)amino)-2-((3-(difluoromethoxy)-1-(2-methoxyethyl)-1H-indazol-5-yl)amino)-5-fluoronicotinamide] as the compound, how does the IC50 read?
Answer: 10 to 50 nM

Question: For `CC[C@H](N)[C@H](Nc1nc(Nc2ccc3c(c2)c(C)nn3C)c(C(N)=O)cc1F)C1CC1` [Example 2-545, 6-(((1R,2S)-2-amino-1-cyclopropylbutyl)amino)-2-((1,3-dimethyl-1H-indazol-5-yl)amino)-5-fluoronicotinamide], which IC50 is on record?
Answer: < 10 nM

Question: How did the IC50 turn out when `CC[C@H](N)[C@H](Nc1nc(Nc2cccc3c2cnn3CC(F)F)c(C(N)=O)cc1F)C1CC1` [Example 2-547, 6-(((1R,2S)-2-amino-1-cyclopropylbutyl)amino)-2-((1-(2,2-difluoroethyl)-1H-indazol-4-yl)amino)-5-fluoronicotinamide] was run?
Answer: < 10 nM

Question: With `Cc1ncc(Nc2nc(N[C@H](c3cc(F)cc(F)c3)[C@H](C)N)c(F)cc2C(N)=O)cc1-n1nccn1` [Example 2-548, 6-(((1R,2S)-2-amino-1-(3,5-difluorophenyl)propyl)amino)-5-fluoro-2-((6-methyl-5-(2H-1,2,3-triazol-2-yl)pyridin-3-yl)amino)nicotinamide] as the compound, how does the IC50 read?
Answer: 10 to 50 nM

Question: How did the IC50 turn out when `C[C@H](N)[C@H](Nc1nc(Nc2ccc3c(c2)c(N(C)C)nn3C)c(C(N)=O)cc1F)c1cc(F)cc(F)c1` [Example 2-549, 6-(((1R,2S)-2-amino-1-(3,5-difluorophenyl)propyl)amino)-2-((3-(dimethylamino)-1-methyl-1H-indazol-5-yl)amino)-5-fluoronicotinamide] was run?
Answer: 10 to 50 nM

Question: Which IC50 does the source give for `COCCn1ncc2cc(Nc3nc(N[C@H](c4cc(F)cc(F)c4)[C@H](C)N)c(F)cc3C(N)=O)ccc21` [Example 2-550, 6-(((1R,2S)-2-amino-1-(3,5-difluorophenyl)propyl)amino)-5-fluoro-2-((1-(2-methoxyethyl)-1H-indazol-5-yl)amino)nicotinamide] here?
Answer: < 10 nM

Question: Which IC50 does the source give for `CCn1ncc2c(Nc3nc(N[C@H](c4cc(F)cc(F)c4)[C@H](C)N)c(F)cc3C(N)=O)cccc21` [Example 2-551, 6-(((1R,2S)-2-amino-1-[3,5-difluorophenyl)propyl)amino)-2-((1-ethyl-1H-indazol-4-yl)amino)-5-fluoronicotinamide] here?
Answer: 10 to 50 nM

Question: How did the IC50 turn out when `Cc1ncc(Nc2nc(N[C@H](c3ccc(F)c(F)c3)[C@H](C)N)c(F)cc2C(N)=O)cc1-n1nccn1` [Example 2-552, 6-(((1R,2S)-2-amino-1-(3,4-difluorophenyl)propyl)amino)-5-fluoro-2-((6-methyl-5-(2H-1,2,3-triazol-2-yl)pyridin-3-yl)amino)nicotinamide] was run?
Answer: < 10 nM

Question: With `C[C@H](N)[C@H](Nc1nc(Nc2ccc3c(c2)c(N(C)C)nn3C)c(C(N)=O)cc1F)c1ccc(F)c(F)c1` [Example 2-553, 6-(((1R,2S)-2-amino-1-(3,4-difluorophenyl)propyl)amino)-2-((3-(dimethylamino)-1-methyl-1H-indazol-5-yl)amino)-5-fluoronicotinamide] as the compound, how does the IC50 read?
Answer: < 10 nM

Question: How did the IC50 turn out when `COCCn1ncc2cc(Nc3nc(N[C@H](c4ccc(F)c(F)c4)[C@H](C)N)c(F)cc3C(N)=O)ccc21` [Example 2-554, 6-(((1R,2S)-2-amino-1-(3,4-difluorophenyl)propyl)amino)-5-fluoro-2-((1-(2-methoxyethyl)-1H-indazol-5-yl)amino)nicotinamide] was run?
Answer: < 10 nM

Question: How did the IC50 turn out when `CCn1ncc2c(Nc3nc(N[C@H](c4ccc(F)c(F)c4)[C@H](C)N)c(F)cc3C(N)=O)cccc21` [Example 2-555, 6-(((1R,2S)-2-amino-1-(3,4-difluorophenyl)propyl)amino)-2-((1-ethyl-1H-indazol-4-yl)amino)-5-fluoronicotinamide] was run?
Answer: < 10 nM

Question: How did the IC50 turn out when `C[C@H](N)[C@H](Nc1nc(Nc2cnc(N3CCOCC3)nc2)c(C(N)=O)cc1F)C1CC1` [Example 2-563, 6-(((1R,2S)-2-amino-1-cyclopropylpropyl)amino)-5-fluoro-2-((2-morpholinopyrimidin-5-yl)amino)nicotinamide] was run?
Answer: 50 to 100 nM

The compounds below were run on THP-1 cells (TNFα secretion on human IgG-coated plate) (assay: TNFα generation assay). Conditions: IFN-γ differentiated THP-1 cells, 7 hours, AlphaLISA, read-out: IC50 of TNFα generation inhibitory activity.
Type: cell-based
Description: THP-1 cells (2×10^5 cells/ml), which were human monocytoid cells, were cultured in the presence of 10 ng/ml IFN-γ (Roche) for 2 days, and they were induced to differentiate into macrophage-like cells. The differentiation-induced THP-1 cells were recovered, and the cells (1×10^6 cell/ml) were then allowed to react with a predetermined concentration of test compound at room temperature for 30 minutes. On the other hand, 100 μl of human IgG (10 μg/ml, SIGMA-ALDRICH) diluted with PBS was added to a 96-well plate, and it was then incubated at room temperature overnight. Thereafter, the resultant was washed with PBS twice to produce a human IgG-coated plate. A cell fluid that contained a compound was plated on the obtained human IgG-coated plate (5×10^4 cells/well), and it was then cultured for 7 hours. Thereafter, the cultured solution was recovered, and the amount of TNFα secreted into the culture solution was then measured by the AlphaLISA method (PerkinElmer).

Question: `COc1cc(Nc2nc(N[C@H](C3CCC3)[C@H](C)N)c(F)cc2C(N)=O)ccn1` [Example 2-5, 6-(((1R,2S)-2-amino-1-cyclobutylpropyl)amino)-5-fluoro-2-((2-methoxypyridin-4-yl)amino)nicotinamide] was tested. Which IC50 did it give?
Answer: 65 to 130 nM

Question: Which IC50 does the source give for `COc1cc(Nc2nc(N[C@H](C3CCC3)[C@H](C)N)c(F)cc2C(N)=O)cc(OC)n1` [Example 2-6, 6-(((1R,2S)-2-amino-1-cyclobutylpropyl)amino)-2-((2,6-dimethoxypyridin-4-yl)amino)-5-fluoronicotinamide] here?
Answer: 130 to 200 nM

Question: For `COCCOc1cc(Nc2nc(N[C@H](C3CCC3)[C@H](C)N)c(F)cc2C(N)=O)ccn1` [Example 2-7, 6-(((1R,2S)-2-amino-1-cyclobutylpropyl)amino)-5-fluoro-2-((2-(2-methoxyethoxy)pyridin-4-yl)amino)nicotinamide], which IC50 is on record?
Answer: 65 to 130 nM

Question: `C[C@H](N)[C@H](Nc1nc(Nc2ccc3ncccc3c2)c(C(N)=O)cc1F)C1CCC1` [Example 2-8, 6-(((1R,2S)-2-amino-1-cyclobutylpropyl)amino)-5-fluoro-2-(quinolin-6-ylamino)nicotinamide] was tested. Which IC50 did it give?
Answer: < 65 nM

— US9051310B2, “Nicotinamide derivative or salt thereof” (FUJIFILM Corporation, priority 2011, dated 2015)
